The record followed here is ChEMBL document CHEMBL4184219, “Binding-Site Compatible Fragment Growing Applied to the Design of β2-Adrenergic Receptor Ligands” (J Med Chem, 2018).

Experiment [1] addresses T1, Beta-2 adrenergic receptor (Homo sapiens, UniProt P07550). As to the kind of experiment: Ratio of Ki for Nb69-fused beta2 adrenergic receptor (unknown origin) to Ki for Nb80-fused beta2 adrenergic receptor (unknown origin).
Experiment [2] has as its target T1, Beta-2 adrenergic receptor. As to the kind of experiment: Displacement of [3H]-DHA from Nb69-fused beta2 adrenergic receptor (unknown origin) expressed in Sf9 cell membranes after 2 hrs by microbeta scintillation counting method. Background: Loss of bound radioactivity is the signal in a displacement assay; it reports binding, not function.
The target of experiment [3] is T1, Beta-2 adrenergic receptor. As to the kind of experiment: Displacement of [3H]-DHA from Nb80-fused beta2 adrenergic receptor (unknown origin) expressed in Sf9 cell membranes after 2 hrs by microbeta scintillation counting method.

Structures are written as SMILES.

T1 sequence (P07550 whole entry, looked up, the tested form may be a part): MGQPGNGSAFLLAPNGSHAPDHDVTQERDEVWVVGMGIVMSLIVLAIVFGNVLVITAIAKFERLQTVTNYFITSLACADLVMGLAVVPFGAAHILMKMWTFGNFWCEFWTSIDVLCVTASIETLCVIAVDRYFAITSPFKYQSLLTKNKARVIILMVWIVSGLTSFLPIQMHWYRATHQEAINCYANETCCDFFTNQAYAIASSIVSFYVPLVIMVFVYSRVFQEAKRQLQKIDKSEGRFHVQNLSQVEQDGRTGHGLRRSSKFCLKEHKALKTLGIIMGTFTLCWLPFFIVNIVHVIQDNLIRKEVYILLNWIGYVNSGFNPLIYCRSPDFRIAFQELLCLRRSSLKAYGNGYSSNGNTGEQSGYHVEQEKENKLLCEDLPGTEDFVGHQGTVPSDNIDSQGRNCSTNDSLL

For `COc1ccc2c(c1)c(CCNCCCc1ccc(Cl)cc1)cn2C`, the Ratio Ki in experiment [1] worked out at 7.5. The Ki in experiment [2] turned out to be 3.9 µM; in experiment [3] it was 0.52 µM.

Regarding `NCc1ccc(-c2ncccn2)cc1`, the Ratio Ki in experiment [1] was > 91. Besides, the Ki was > 1000 µM in experiment [2] and 78.1 µM in experiment [3].

Regarding `Cc1ccccc1C(C)NCc1ccc(-c2ncccn2)cc1` (centres undefined), in experiment [1], the Ratio Ki came out at 61. The Ki was determined as 268 µM in experiment [2] and 4.39 µM in experiment [3].

On to `CC(N)c1ccc(Cl)cc1` (centres undefined), for which, in experiment [1], the Ratio Ki is > 61. In addition, the Ki in experiment [2] is > 1000 µM; in experiment [3] it was 33.8 µM.

Turning to `OCC(NCc1ccc(-c2nccs2)cc1)c1ccco1` (centres undefined), the Ratio Ki in experiment [1] is > 51. Moreover, the Ki in experiment [2] is > 1000 µM; in experiment [3], 95.4 µM.

With `COc1ccc2c(c1)c(CCNCc1cc(OC(F)(F)F)ccc1F)cn2C`, in experiment [1], the Ratio Ki worked out at 1. Moreover, the Ki in experiment [2] was found to be 83.8 µM; in experiment [3], 80.4 µM.

In the case of `CC1(NCc2cc3ccccc3s2)COC1`, the Ratio Ki in experiment [1] is > 10. Further, the Ki in experiment [2] and in experiment [3] was > 1000 µM throughout.

For the compound `CC(NC1CC(c2ccc(F)cc2)C1)c1ccc(Cl)cc1` (centres undefined), the Ratio Ki in experiment [1] was found to be 9.4. The Ki in experiment [2] came to 74 µM; in experiment [3], 7.89 µM.

Take `CNCc1cc2ccccc2s1`: in experiment [1], the Ratio Ki came to 8.6. Besides, the figures for the Ki in experiment [2] and in experiment [3] were 373 µM and 43.2 µM, respectively.

For `C[C@H](CC(F)(F)F)NCc1ccc(-c2nccs2)cc1`, the Ratio Ki in experiment [1] was 7.5. In addition, the values for the Ki in experiment [2] and in experiment [3] were 393 µM and 52.3 µM, respectively.

In the case of `COc1ccc2c(c1)c(CCN)cn2C`, in experiment [1], the Ratio Ki is 1.8. Besides, the Ki came to 36.2 µM in experiment [2] and 20.4 µM in experiment [3].

`COc1ccc2c(c1)c(CCNCCCc1cccc(C(F)(F)F)c1)cn2C`: the Ratio Ki in experiment [1] was 2.4. The Ki in experiment [2] was 25 µM; in experiment [3], 10.4 µM.

On to `CNCc1ccc(-c2nccs2)cc1`, for which, in experiment [1], the Ratio Ki stood at 11. The Ki in experiment [2] is 365 µM; in experiment [3] it was 33.5 µM.

The term Ki denotes a dissociation constant, usually derived from enzyme kinetics or from competition with a known ligand. Low values mean a stronger hold on the target, high ones a looser hold on the target.
